{"source": "patent US20240207238A1", "about": "“INHIBITORS OF PROTEIN TYROSINE PHOSPHATASE, COMPOSITIONS, AND METHODS OF USE” (BRISTOL-MYERS SQUIBB COMPANY, priority 2022, published 2024)", "key": {"PTPN2 [1]": {"target": "T1, PTPN2 (Homo sapiens (Human), UniProt P17706)", "T1 sequence (P17706 whole entry)": "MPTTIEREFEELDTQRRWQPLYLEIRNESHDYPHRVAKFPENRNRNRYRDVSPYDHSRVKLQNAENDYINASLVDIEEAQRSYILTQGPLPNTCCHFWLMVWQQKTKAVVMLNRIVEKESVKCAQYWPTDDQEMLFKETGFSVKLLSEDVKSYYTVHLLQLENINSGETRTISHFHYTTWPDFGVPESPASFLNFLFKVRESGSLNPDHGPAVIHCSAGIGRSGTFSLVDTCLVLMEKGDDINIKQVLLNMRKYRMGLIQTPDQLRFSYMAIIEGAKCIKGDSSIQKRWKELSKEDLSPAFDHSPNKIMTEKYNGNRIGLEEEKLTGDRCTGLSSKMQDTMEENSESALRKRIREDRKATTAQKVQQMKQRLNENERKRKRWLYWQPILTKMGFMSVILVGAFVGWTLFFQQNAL", "assay": "Phosphatase activity assay using DiFMUP as substrate", "type": "biochemical", "conditions": "0.15 nM PTPN2, read-out: PTPN2 BChem DIFMUP IC50", "protocol": "The PTPN2 biochemical assay was performed as follows, a 5× stock solution of human PTPN2 (SRP5075, MilliporeSigma, Burlington, MA) and a 1.25× stock solution of DiFMUP (D6567, ThermoFisher Scientific, Waltham, MA), were prepared in 1× reaction buffer consisting of 50 mM HEPES, pH 7.4, 1 mM EDTA, 150 mM NaCl, 0.2 mg/mL BSA, 100 U/mL catalase and 10 mM DTT. […] of the DiFMUP substrate solution, for a final concentration of […] DiFMUP substrate, was added to a Corning 3574 384-well, white, non-binding surface microtiter plate containing […] of serially diluted test compounds prepared in DMSO. The reactions were started with the addition of […] of the enzyme solution, for a final PTPN2 concentration of 0.15 nM, and monitored every 105 seconds for 60 minutes at MEX 360/2EM 460 in a BioTek Synergy HTX plate reader (Agilent Technologies, Santa Clara, CA) at room temperature. The initial linear portions of the progress curves were fit according to a linear equation to yield the slopes and converted to % inhibition based on a value of 100% activity for the no inhibitor treated control. IC50 values of each compound were obtained by fitting the % inhibition-compound concentration curves using Dotmatics software (Dotmatics, Bishops Stortford, Hertfordshire, England).\n(§1) For IC50 data, High DDT concentration and/or DiFMUP substrate assays were used; a skilled artisan may use either assay."}, "[2]": {"system": "phosphorylated STAT1 in B16-F10 cells", "assay": "Phospho-STAT1 (Tyr701) HTRF assay in B16-F10 cells", "type": "cell-based", "conditions": "100 ng/mL mouse IFN-gamma, 1 hour, read-out: pSTAT1 HTRF B16 EC50", "protocol": "B16-F10 cells (ATCC, Manassas, VA, #CRL-6475) were cultured in DMEM growth medium (ThermoFisher Scientific, Waltham, MA, #11995-040) supplemented with 10% heat-inactivated FBS (ThermoFisher Scientific, #16140-071) and 1% pen/strep (ThermoFisher Scientific, #15140-122). The cells were seeded into a white opaque 384-well tissue culture treated microplate (PerkinElmer, Waltham, MA, #6007688) at a density of 10,000 cells/well in 20 uL total volume and incubated overnight at 37 C and 5% CO2. 30 nL of compounds dissolved in DMSO were then transferred from a source plate into target wells with the Echo650 acoustic liquid handler (Beckman Coulter, Indianapolis, IN). Negative control wells received 30 nL of DMSO only (0.15% final concentration). Plates were returned to the incubator for 1 hour and then cells were treated with either 5 uL of growth medium or 5 uL of growth medium containing 500 ng/ml of recombinant mouse IFN-gamma protein (R&D Systems, Minneapolis, MN, #485-MI/CF, 100 ng/mL final concentration) using the Assist automated pipetting platform (INTEGRA Biosciences, Hudson, NH). Plates were incubated at 37 C for 1 hour and assayed for phosphorylated STAT1 protein levels with the phospho-STAT1 (Tyr701) HTRF kit (Cisbio, Bedford, MA, #63ADK026PEH) according to the manufacturer's instructions."}, "B16-F10 cells": {"system": "B16-F10 cells", "assay": "Cell proliferation assay (CellTiter-Glo) in B16-F10 cells with IFN-gamma", "type": "cell-based", "conditions": "10 ng/ml mouse IFN-gamma, read-out: Prolif. 5d B16 GI50"}, "PTPN2 [3]": {"target": "T1, PTPN2", "assay": "PTPN2 biochemical assay, high DTT (PhosphoSens)", "conditions": "high DTT concentration assay; read-out: PTPN2 BChem HIGHDTT IC50", "protocol": "A PhosphoSens® kinase assay was performed as described by the vendor (AssayQuant Technologies, Marlborough, MA). Briefly, 1000× solutions of compounds were prepared in DMSO via serial dilution of the 10 mM DMSO stocks using 3-fold intervals in a 384-well reagent plate. 50 nL of the compound dilution series was then added to the corresponding wells of a 384-well assay plate. […] Finally, […] of 5×PTPN2 enzyme stock was added to each well of the assay plate for a final enzyme concentration of 150 pM. Reaction progress curves were collected by sampling fluorescence intensity at the excitation wavelength 360 nm (Quex360) and emission wavelength 480 nm (λem480) every 71 seconds for one hour using a Synergy H4 plate reader (BioTek Instruments/Agilent Technologies, Winooski, VT) at room temperature.\nas §1"}}, "note": "Read-outs that look alike come from different tables or passages of the source.", "data": [{"compound": "5-(6-fluoro-4-(((4-methoxy-5-methylpyridin-2-yl)amino)methyl)-1H-indazol-7-yl)-1,2,5-thiadiazolidin-3-one 1,1-dioxide [Example 7]", "values": [{"measurement": "IC50", "setting": "PTPN2 [1]", "value": 199, "unit": "nM"}, {"measurement": "EC50", "setting": "[2]", "value": "> 15000", "unit": "nM"}, {"measurement": "GI50", "setting": "B16-F10 cells", "value": "> 15000", "unit": "nM"}]}, {"compound": "5-[6-fluoro-4-[[(4-methoxy-2-pyridyl)amino]methyl]-1H-indazol-7-yl]-1,1-dioxo-1,2,5-thiadiazolidin-3-one [Example 3]", "values": [{"measurement": "IC50", "setting": "PTPN2 [3]", "value": 6, "unit": "nM"}, {"measurement": "IC50", "setting": "PTPN2 [1]", "value": 9, "unit": "nM"}, {"measurement": "EC50", "setting": "[2]", "value": 764, "unit": "nM"}, {"measurement": "GI50", "setting": "B16-F10 cells", "value": 350, "unit": "nM"}]}, {"compound": "O=C1CN(c2c(F)cc(CNc3cc(C4CC4)ccn3)c3cn[nH]c23)S(=O)(=O)N1", "note": "[Example 4, 5-[4-[[(4-cyclopropyl-2-pyridyl)amino]methyl]-6-fluoro-1H-indazol-7-yl]-1,1-dioxo-1,2,5-thiadiazolidin-3-one]", "values": [{"measurement": "IC50", "setting": "PTPN2 [3]", "value": 1, "unit": "nM"}, {"measurement": "IC50", "setting": "PTPN2 [1]", "value": 2, "unit": "nM"}, {"measurement": "EC50", "setting": "[2]", "value": 3120, "unit": "nM"}, {"measurement": "GI50", "setting": "B16-F10 cells; 120 h", "value": 2690, "unit": "nM"}]}, {"compound": "5-(4-(((4,6-dimethylpyridin-2-yl)amino)methyl)-6-fluoro-1H-indazol-7-yl)-1,2,5-thiadiazolidin-3-one 1,1-dioxide [Example 6]", "values": [{"measurement": "IC50", "setting": "PTPN2 [1]", "value": 83, "unit": "nM"}, {"measurement": "EC50", "setting": "[2]", "value": 3690, "unit": "nM"}, {"measurement": "GI50", "setting": "B16-F10 cells", "value": 3260, "unit": "nM"}]}, {"compound": "COc1cc(C)nc(NCc2cc(F)c(N3CC(=O)NS3(=O)=O)c3[nH]ncc23)c1", "note": "[Example 9, 5-[6-fluoro-4-[[(4-methoxy-6-methyl-2-pyridyl)amino]methyl]-1H-indazol-7-yl]-1,1-dioxo-1,2,5-thiadiazolidin-3-one]", "values": [{"measurement": "IC50", "setting": "PTPN2 [1]", "value": 1, "unit": "nM"}, {"measurement": "EC50", "setting": "[2]", "value": 91, "unit": "nM"}, {"measurement": "GI50", "setting": "B16-F10 cells; 120 h", "value": 20, "unit": "nM"}]}, {"compound": "5-[6-fluoro-4-[[(6-methoxy-2-pyridyl)amino]methyl]-1H-indazol-7-yl]-1,1-dioxo-1,2,5-thiadiazolidin-3-one [Example 1]", "values": [{"measurement": "IC50", "setting": "PTPN2 [3]", "value": 5, "unit": "nM"}, {"measurement": "IC50", "setting": "PTPN2 [1]", "value": 2, "unit": "nM"}, {"measurement": "EC50", "setting": "[2]", "value": 287, "unit": "nM"}, {"measurement": "GI50", "setting": "B16-F10 cells", "value": 160, "unit": "nM"}]}, {"compound": "5-[6-fluoro-4-[[(3-methyl-2-pyridyl) amino] methyl]-1H-indazol-7-yl]-1,1-dioxo-1,2,5-thiadiazolidin-3-one [Example 10]", "values": [{"measurement": "IC50", "setting": "PTPN2 [1]", "value": 16, "unit": "nM"}, {"measurement": "EC50", "setting": "[2]", "value": 14000, "unit": "nM"}, {"measurement": "GI50", "setting": "B16-F10 cells", "value": 3970, "unit": "nM"}]}, {"compound": "5-(6-fluoro-4-(((5-methoxypyridin-2-yl)amino)methyl)-1H-indazol-7-yl)-1,2,5-thiadiazolidin-3-one 1,1-dioxide [Example 2]", "values": [{"measurement": "IC50", "setting": "PTPN2 [3]", "value": 42, "unit": "nM"}, {"measurement": "IC50", "setting": "PTPN2 [1]", "value": 24, "unit": "nM"}, {"measurement": "EC50", "setting": "[2]", "value": 1880, "unit": "nM"}, {"measurement": "GI50", "setting": "B16-F10 cells", "value": 880, "unit": "nM"}]}, {"compound": "5-[6-fluoro-4-[[(4-methyl-2-pyridyl)amino]methyl]-1H-indazol-7-yl]-1,1-dioxo-1,2,5-thiadiazolidin-3-one [Example 5]", "values": [{"measurement": "IC50", "setting": "PTPN2 [3]", "value": 5, "unit": "nM"}, {"measurement": "IC50", "setting": "PTPN2 [1]", "value": 8, "unit": "nM"}, {"measurement": "EC50", "setting": "[2]", "value": 440, "unit": "nM"}, {"measurement": "GI50", "setting": "B16-F10 cells", "value": 166, "unit": "nM"}]}, {"compound": "Cc1cc(NCc2cc(F)c(N3CC(=O)NS3(=O)=O)c3[nH]ncc23)ncc1C#N", "note": "[Example 8, 6-[[6-fluoro-7-(1,1,4-trioxo-1,2,5-thiadiazolidin-2-yl)-1H-indazol-4-yl]methylamino]-4-methyl-pyridine-3-carbonitrile]", "values": [{"measurement": "IC50", "setting": "PTPN2 [1]", "value": 67, "unit": "nM"}, {"measurement": "EC50", "setting": "[2]", "value": 9210, "unit": "nM"}, {"measurement": "GI50", "setting": "B16-F10 cells; 120 h", "value": "> 15000", "unit": "nM"}]}]}
